Source: patent publication US20130190407A1, “CALCIUM RECEPTOR-ACTIVE MOLECULES” (NPS Pharmaceuticals, Inc., priority 1991, published 2013)

Experiments:
Type in all cases: cell-based
Bovine parathyroid cells [1] = assay: PTH secretion from bovine parathyroid cells; settings: concentrations that mobilize intracellular Ca2+
Description: PTH secretion was measured by first suspending cells in PCB containing 0.5 mM CaCl2 and 0.1% BSA.
Counting of samples and data reduction were performed on a Packard Cobra 5005 gamma counter.

calcium receptor = target: T1, calcium receptor (Bos taurus, UniProt P35384); assay: 45Ca2+ release from Xenopus oocytes injected with bovine parathyroid mRNA; settings: 10 mM for 20 min, compared to mock challenge with buffer
T1 construct: Whole pieces of gland were used to prepare mRNA that directs the expression of the calcium receptor in Xenopus oocytes; expressed in transfected cells; host or cells: Xenopus laevis oocytes injected with total poly(A)+ mRNA from bovine parathyroid glands
T1 sequence (P35384 20-1085): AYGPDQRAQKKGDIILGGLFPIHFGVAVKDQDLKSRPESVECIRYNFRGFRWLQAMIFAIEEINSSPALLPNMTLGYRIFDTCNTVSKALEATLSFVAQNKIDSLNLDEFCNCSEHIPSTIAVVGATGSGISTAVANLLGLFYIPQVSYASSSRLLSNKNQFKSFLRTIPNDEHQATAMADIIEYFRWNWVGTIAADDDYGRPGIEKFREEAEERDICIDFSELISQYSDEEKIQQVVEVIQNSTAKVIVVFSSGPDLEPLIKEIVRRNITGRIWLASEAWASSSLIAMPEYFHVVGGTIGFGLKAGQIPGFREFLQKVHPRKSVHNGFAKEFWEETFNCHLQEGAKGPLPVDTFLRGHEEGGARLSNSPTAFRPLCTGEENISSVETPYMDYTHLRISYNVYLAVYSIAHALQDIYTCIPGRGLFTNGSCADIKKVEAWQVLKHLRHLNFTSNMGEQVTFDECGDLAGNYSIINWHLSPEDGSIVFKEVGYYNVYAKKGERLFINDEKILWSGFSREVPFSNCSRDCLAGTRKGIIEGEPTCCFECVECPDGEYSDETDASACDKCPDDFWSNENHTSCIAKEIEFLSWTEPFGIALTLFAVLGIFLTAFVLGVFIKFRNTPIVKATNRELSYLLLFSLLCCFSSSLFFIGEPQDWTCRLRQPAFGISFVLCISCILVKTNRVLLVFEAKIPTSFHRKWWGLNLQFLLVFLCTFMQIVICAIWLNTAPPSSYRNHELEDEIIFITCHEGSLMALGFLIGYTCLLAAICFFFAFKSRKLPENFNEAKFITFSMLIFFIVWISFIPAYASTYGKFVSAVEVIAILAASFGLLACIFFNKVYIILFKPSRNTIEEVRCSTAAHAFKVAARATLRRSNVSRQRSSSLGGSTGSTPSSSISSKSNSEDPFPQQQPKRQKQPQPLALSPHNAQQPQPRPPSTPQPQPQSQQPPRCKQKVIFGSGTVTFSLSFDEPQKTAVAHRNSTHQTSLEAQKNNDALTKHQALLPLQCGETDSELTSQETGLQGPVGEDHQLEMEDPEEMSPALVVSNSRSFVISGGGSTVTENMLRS
Excerpt: For example, we have been able to detect calcium receptor expression in oocytes by measuring ^45Ca^2+ mobilization. […] Prior to being stimulated, oocytes were loaded with ^45Ca^2+. […] The assay is sensitive enough for use in cloning the calcium receptor, and has the advantage of a higher throughput than the electrophysiological measurement of Ca^2+-activated Cl^− current.

Bovine parathyroid cells [2] = settings: 10 μM isoproterenol 15 min; no pertussis toxin; 2.0 mM Ca2+, 200 μM spermine, 30 μM neomycin B, 2 μg/ml protamine; mean ± SEM
Description: This section describes measuring cyclic AMP levels. Cells were incubated as above for PTH secretion studies and at the end of the incubation, a 0.15-ml sample was taken and transferred to 0.85 ml of hot (70° C.) water and heated at this temperature for 5-10 minutes. The tubes were subsequently frozen and thawed several times and the cellular debris sedimented by centrifugation. Portions of the supernatant were acetylated and cyclic AMP concentrations determined by radioimmunoassay.
Bovine parathyroid cells were cultured for 16 hours with or without 100 ng/ml pertussis toxin. […] Each value is the mean±SEM of three experiments.

## NC[C@@H]1O[C@H](O[C@H]2[C@@H](O)[C@H](O[C@@H]3[C@@H](O)[C@H](N)C[C@H](N)[C@H]3O[C@H]3O[C@H](CN)[C@@H](O)[C@H](O)[C@H]3N)O[C@@H]2CO)[C@H](N)[C@@H](O)[C@@H]1O [Neomycin B, neomycin B]
Bovine parathyroid cells [1]
  PTH secretion: inhibited PTH secretion to the same extent as extracellular Ca^2+
Calcium receptor
  increase in 45Ca2+ release: 76%
Bovine parathyroid cells [2]
  cyclic AMP (% of control), control: 28 ± 8 % of control
